Assays:
Assay in all cases: relative viability (nuclei count vs DMSO), 5 days (fraction); higher = more cells survive
Irinotecan + Crizotinib = compound: CCc1c2c(nc3ccc(OC(=O)N4CCC(N5CCCCC5)CC4)cc13)-c1cc3c(c(=O)n1C2)COC(=O)[C@]3(O)CC [Irinotecan] + C[C@@H](Oc1cc(-c2cnn(C3CCNCC3)c2)cnc1N)c1c(Cl)ccc(F)c1Cl [Crizotinib] (partner 1 µM)
How it was run: (§1)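 The day after seeding in 1536-well plates, lung cancer cell lines were treated by pin tool with a single drug, or with a fixed anchor-drug dose together with five library-drug doses (not always all listed) in √10 steps. After 5 days, a combined fix-and-stain solution (final 0.05% Triton X-100, 1% formaldehyde, 1 ug/ml Hoechst) was added. Nuclei counted on 4× images gave relative viability as treated counts over vehicle counts, reported as the median of duplicate plates.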

RU-SKI 43 + Phenformin = compound: CC[C@@H](C)CNCC(=O)N1CCC2=C([C@@H]1COC3=CC=CC(=C3)C)C=CS2 [RU-SKI 43] + N=C(N)NC(=N)NCCc1ccccc1 [Phenformin] (partner 250 µM)
How it was run: as §1

Irinotecan + Phenformin = compound: CCc1c2c(nc3ccc(OC(=O)N4CCC(N5CCCCC5)CC4)cc13)-c1cc3c(c(=O)n1C2)COC(=O)[C@]3(O)CC [Irinotecan] + N=C(N)NC(=N)NCCc1ccccc1 [Phenformin] (partner 250 µM)
How it was run: as §1

MK-8033 + Tozasertib = compound: Cn1cc(-c2cnc3ccc4ccc(CS(=O)(=O)NCc5ccccn5)cc4c(=O)c3c2)cn1 [MK-8033] + Cc1cc(Nc2cc(N3CCN(C)CC3)nc(Sc3ccc(NC(=O)C4CC4)cc3)n2)n[nH]1 [Tozasertib] (partner 0.1 µM)
How it was run: as §1

Row | Cell Line | relative viability (Irinotecan + Crizotinib; first compound 0.6325 µM) | relative viability (Irinotecan + Crizotinib; first compound 2 µM) | relative viability (Irinotecan + Crizotinib; first compound 6.325 µM) | relative viability (Irinotecan + Crizotinib; first compound 20 µM) | relative viability (RU-SKI 43 + Phenformin; first compound 0.1 µM) | relative viability (RU-SKI 43 + Phenformin; first compound 0.3162 µM) | relative viability (RU-SKI 43 + Phenformin; first compound 1 µM) | relative viability (RU-SKI 43 + Phenformin; first compound 3.162 µM) | relative viability (RU-SKI 43 + Phenformin; first compound 10 µM) | relative viability (Irinotecan + Phenformin; first compound 0.6325 µM) | relative viability (Irinotecan + Phenformin; first compound 2 µM) | relative viability (Irinotecan + Phenformin; first compound 6.325 µM) | relative viability (Irinotecan + Phenformin; first compound 20 µM) | relative viability (MK-8033 + Tozasertib; first compound 0.02 µM) | relative viability (MK-8033 + Tozasertib; first compound 0.06325 µM) | relative viability (MK-8033 + Tozasertib; first compound 0.2 µM) | relative viability (MK-8033 + Tozasertib; first compound 0.6325 µM) | relative viability (MK-8033 + Tozasertib; first compound 2 µM)
1 | NCI-H1666 | 0.617 | 0.464 | 0.47 | 0.357 | 0.58 | 0.574 | 0.518 | 0.519 | 0.53 | 0.511 | 0.529 | 0.425 | 0.424 | 0.588 | 0.587 | 0.589 | 0.648 | 0.614
2 | HARA | 0.705 | 0.204 | 0.208 | 0.161 | 0.531 | 0.471 | 0.491 | 0.457 | 0.408 | 0.351 | 0.157 | 0.11 | 0.113 | 0.104 | 0.0979 | 0.111 | 0.136 | 0.112
3 | NCI-H661 | 0.923 | 0.842 |  | 0.517 | 0.288 | 0.281 | 0.324 | 0.281 | 0.267 | 0.254 | 0.329 | 0.277 | 0.191 | 0.37 | 0.328 | 0.359 | 0.35 | 0.345
4 | NCI-H2087 | 0.476 | 0.396 | 0.259 | 0.203 | 0.46 | 0.552 | 0.477 | 0.526 | 0.406 | 0.218 | 0.341 | 0.192 | 0.176 | 0.241 | 0.266 | 0.237 | 0.246 | 0.247
5 | LC-2-ad | 0.359 | 0.314 | 0.258 | 0.186 | 0.578 | 0.628 | 0.637 | 0.527 | 0.558 | 0.444 | 0.529 | 0.324 | 0.197 | 0.441 | 0.385 |  | 0.512 | 0.409
6 | NCI-H2405 | 0.788 | 0.779 | 0.355 | 0.274 | 0.37 | 0.371 | 0.413 | 0.379 | 0.358 |  | 0.392 | 0.309 | 0.279 | 0.735 | 0.726 | 0.724 | 0.734 | 0.789
7 | HCC-44 | 0.578 | 0.491 | 0.27 | 0.273 | 0.247 | 0.261 | 0.409 | 0.18 | 0.277 |  | 0.251 | 0.147 | 0.211 | 0.886 | 0.837 | 0.771 | 0.729 | 0.813
8 | NCI-H3122 | 0.25 | 0.205 | 0.173 | 0.163 | 0.394 | 0.376 | 0.411 | 0.379 | 0.37 | 0.364 | 0.341 | 0.235 | 0.088 | 0.53 | 0.374 | 0.383 | 0.369 | 0.323
9 | LU99A | 0.281 | 0.286 | 0.251 | 0.229 | 0.862 | 0.955 | 0.863 | 0.871 | 0.654 | 0.369 | 0.37 | 0.208 | 0.301 | 0.268 | 0.262 | 0.281 | 0.268 | 0.269
10 | ABC-1 |  | 0.785 | 0.297 | 0.154 | 0.189 | 0.239 | 0.227 | 0.255 | 0.213 |  | 0.292 | 0.229 | 0.0948 | 0.207 | 0.123 | 0.155 | 0.174 | 0.154
11 | H3255 | 0.741 | 0.539 | 0.383 | 0.251 | 0.395 | 0.348 | 0.26 | 0.316 | 0.322 | 0.343 | 0.337 | 0.344 | 0.331 | 0.581 | 0.501 | 0.554 | 0.609 | 0.602
12 | HCC-827 | 0.487 | 0.287 | 0.282 | 0.191 | 0.421 | 0.422 | 0.372 | 0.46 | 0.359 | 0.345 | 0.349 | 0.159 | 0.209 | 0.412 |  | 0.402 | 0.4 | 0.401
13 | NCI-H1734 | 0.618 | 0.336 | 0.226 | 0.177 | 0.43 | 0.385 | 0.44 | 0.35 | 0.38 |  | 0.357 | 0.244 | 0.17 | 0.243 | 0.215 | 0.3 | 0.261 | 0.242
14 | EBC-1 | 0.191 | 0.165 | 0.203 | 0.151 |  |  |  |  |  |  |  |  |  |  |  |  |  | 
15 | NCI-H838 | 0.769 | 0.679 | 0.365 | 0.276 | 0.682 | 0.626 | 0.745 | 0.654 | 0.682 | 0.661 | 0.587 | 0.312 | 0.202 | 0.297 | 0.272 | 0.281 | 0.266 | 0.236
16 | NCI-H1437 | 0.962 | 0.664 | 0.323 | 0.24 | 0.359 | 0.267 | 0.311 | 0.352 | 0.306 | 0.296 | 0.306 | 0.163 | 0.144 | 0.408 | 0.424 | 0.401 | 0.395 | 0.372
